Results from patent US10683352B1, “Methods for treating cancer using GRM8 inhibitors” (Flagship Pioneering Innovations V, Inc., priority 2018, dated 2020).

Test system: M2-like macrophages
Assay: IL-8 secretion by monocyte-derived macrophages treated with mGluR8 agonist (LEGENDplex bead-based immunoassay)
Assay type: cell-based, human
Settings: supernatant; for Fold change of IL-8 (Normalized to M2-like Macs + LPS with no compound treatment): human monocyte-derived macrophages, LEGENDplex
Description: CD14+ monocytes were isolated from human PBMCs using negative magnetic bead selection (Stemcell Technologies) on day 0. Cells were cultured with M-CSF to differentiate monocytes to macrophages. On day 6, cells were treated with L-AP4 (selective group III metabotropic glutamate receptor agonist) (Sigma-Aldrich), at concentrations 1 μM and 10 μM overnight. Supernatant was collected and LEGENDplex™ bead-based immunoassays (Biolegend) were performed to detect for changes in cytokines secreted.
Secretion of the inflammatory cytokine, IL-8, was decreased with the addition of the mGluR8 agonist in M2-like macrophages, consistent across multiple donors, as shown in Table 17 below.

NC(CCP(=O)(O)O)C(=O)O [L-AP4]
Fold change of IL-8 (Normalized to M2-like Macs + LPS with no compound treatment) (M2-like Macs + L-AP4 1 μM overnight): 0.646
Fold change of IL-8 (Normalized to M2-like Macs + LPS with no compound treatment) (M2-like Macs + L-AP4 10 μM overnight): 0.866
Secretion of the inflammatory cytokine IL-8 (macrophages differentiated with M-CSF from CD14+ monocytes of human PBMCs, L-AP4 at 1 μM and 10 μM overnight, multiple donors): decreased
